{"source": "patent US20210069199A1", "about": "“METHODS OF TREATING TRANSPLANT REJECTION” (priority 2015, published 2021)", "key": {"GVHD in recipient mice": {"test_system": "GVHD in recipient mice", "assay": "murine model of MHC-disparate allogeneic hematopoietic cell transplantation (GVHD)", "format": "in vivo", "conditions": "100 mg/kg twice a day by oral gavage for 4 weeks beginning on the day of MHC-disparate allo-HCT"}, "STAT3 activity by IL-6": {"test_system": "STAT3 activity by IL-6", "assay": "STAT3 activity by IL-6 in human CD4+ T-cells", "format": "cell-based", "conditions": "2.5 μM", "excerpt": "(§1) This offers a platform to reduce Th17 development, while promoting Treg populations."}, "myelofibrosis patients": {"test_system": "myelofibrosis patients", "conditions": "unlike JAK1/JAK2 inhibitors; cited from earlier work"}, "CSF1R": {"molecular_target": "CSF1R (Homo sapiens, UniProt P07333)", "sequence (P07333 20-972, species assumed)": "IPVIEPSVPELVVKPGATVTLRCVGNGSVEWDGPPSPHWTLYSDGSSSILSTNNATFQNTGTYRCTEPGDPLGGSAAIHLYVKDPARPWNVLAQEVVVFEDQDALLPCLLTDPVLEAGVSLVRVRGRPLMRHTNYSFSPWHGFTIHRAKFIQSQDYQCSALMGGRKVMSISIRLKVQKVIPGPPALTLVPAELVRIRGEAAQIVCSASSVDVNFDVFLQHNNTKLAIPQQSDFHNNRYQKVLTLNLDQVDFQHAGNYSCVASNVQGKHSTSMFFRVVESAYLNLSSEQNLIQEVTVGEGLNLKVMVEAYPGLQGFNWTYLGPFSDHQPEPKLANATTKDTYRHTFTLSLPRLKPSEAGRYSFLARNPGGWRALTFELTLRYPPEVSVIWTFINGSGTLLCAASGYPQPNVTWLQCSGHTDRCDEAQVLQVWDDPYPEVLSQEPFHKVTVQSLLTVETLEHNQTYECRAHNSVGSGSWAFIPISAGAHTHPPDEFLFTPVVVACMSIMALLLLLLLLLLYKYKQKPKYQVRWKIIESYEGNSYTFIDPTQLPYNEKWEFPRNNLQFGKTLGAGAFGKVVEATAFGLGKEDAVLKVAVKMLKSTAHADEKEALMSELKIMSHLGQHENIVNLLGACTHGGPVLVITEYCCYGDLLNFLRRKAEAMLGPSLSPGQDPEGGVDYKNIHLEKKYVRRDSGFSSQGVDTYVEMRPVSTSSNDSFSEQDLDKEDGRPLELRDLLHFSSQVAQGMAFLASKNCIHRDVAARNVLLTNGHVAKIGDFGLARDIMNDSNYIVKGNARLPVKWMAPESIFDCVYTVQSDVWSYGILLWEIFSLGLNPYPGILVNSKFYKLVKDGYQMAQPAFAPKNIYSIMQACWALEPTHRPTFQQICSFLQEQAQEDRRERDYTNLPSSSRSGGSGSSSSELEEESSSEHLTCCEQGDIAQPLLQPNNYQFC", "conditions": "cited from earlier work"}, "IRAK1": {"molecular_target": "IRAK1 (Homo sapiens, UniProt P51617)", "sequence (P51617 whole entry, species assumed)": "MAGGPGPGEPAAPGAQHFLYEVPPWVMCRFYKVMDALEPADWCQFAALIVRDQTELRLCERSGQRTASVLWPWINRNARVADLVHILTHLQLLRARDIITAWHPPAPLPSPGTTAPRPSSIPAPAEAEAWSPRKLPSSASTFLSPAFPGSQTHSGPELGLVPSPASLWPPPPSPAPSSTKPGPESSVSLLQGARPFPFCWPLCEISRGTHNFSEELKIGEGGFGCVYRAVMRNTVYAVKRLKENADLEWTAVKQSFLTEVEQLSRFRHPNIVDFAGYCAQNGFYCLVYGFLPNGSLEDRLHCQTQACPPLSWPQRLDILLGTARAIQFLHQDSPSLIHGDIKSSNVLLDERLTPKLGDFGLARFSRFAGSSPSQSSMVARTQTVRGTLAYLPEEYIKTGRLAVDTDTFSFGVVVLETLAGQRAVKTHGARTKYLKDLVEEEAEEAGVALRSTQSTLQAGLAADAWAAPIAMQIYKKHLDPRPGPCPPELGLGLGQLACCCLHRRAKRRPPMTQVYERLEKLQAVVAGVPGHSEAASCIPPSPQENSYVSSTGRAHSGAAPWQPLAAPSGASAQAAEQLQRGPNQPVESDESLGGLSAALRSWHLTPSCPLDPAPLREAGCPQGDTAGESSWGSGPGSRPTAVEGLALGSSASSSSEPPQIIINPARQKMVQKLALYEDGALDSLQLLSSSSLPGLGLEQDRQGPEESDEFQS", "conditions": "cited from earlier work"}, "[1]": {"test_system": "IL-2 induced STATS phosphorylation", "assay": "IL-2 induced STAT5 phosphorylation in human CD4+ T-cells", "format": "cell-based", "conditions": "2.5 μM", "excerpt": "as §1"}, "JAK3": {"molecular_target": "T1, JAK3 (Homo sapiens, UniProt P52333)", "T1 sequence (P52333 1-1124)": "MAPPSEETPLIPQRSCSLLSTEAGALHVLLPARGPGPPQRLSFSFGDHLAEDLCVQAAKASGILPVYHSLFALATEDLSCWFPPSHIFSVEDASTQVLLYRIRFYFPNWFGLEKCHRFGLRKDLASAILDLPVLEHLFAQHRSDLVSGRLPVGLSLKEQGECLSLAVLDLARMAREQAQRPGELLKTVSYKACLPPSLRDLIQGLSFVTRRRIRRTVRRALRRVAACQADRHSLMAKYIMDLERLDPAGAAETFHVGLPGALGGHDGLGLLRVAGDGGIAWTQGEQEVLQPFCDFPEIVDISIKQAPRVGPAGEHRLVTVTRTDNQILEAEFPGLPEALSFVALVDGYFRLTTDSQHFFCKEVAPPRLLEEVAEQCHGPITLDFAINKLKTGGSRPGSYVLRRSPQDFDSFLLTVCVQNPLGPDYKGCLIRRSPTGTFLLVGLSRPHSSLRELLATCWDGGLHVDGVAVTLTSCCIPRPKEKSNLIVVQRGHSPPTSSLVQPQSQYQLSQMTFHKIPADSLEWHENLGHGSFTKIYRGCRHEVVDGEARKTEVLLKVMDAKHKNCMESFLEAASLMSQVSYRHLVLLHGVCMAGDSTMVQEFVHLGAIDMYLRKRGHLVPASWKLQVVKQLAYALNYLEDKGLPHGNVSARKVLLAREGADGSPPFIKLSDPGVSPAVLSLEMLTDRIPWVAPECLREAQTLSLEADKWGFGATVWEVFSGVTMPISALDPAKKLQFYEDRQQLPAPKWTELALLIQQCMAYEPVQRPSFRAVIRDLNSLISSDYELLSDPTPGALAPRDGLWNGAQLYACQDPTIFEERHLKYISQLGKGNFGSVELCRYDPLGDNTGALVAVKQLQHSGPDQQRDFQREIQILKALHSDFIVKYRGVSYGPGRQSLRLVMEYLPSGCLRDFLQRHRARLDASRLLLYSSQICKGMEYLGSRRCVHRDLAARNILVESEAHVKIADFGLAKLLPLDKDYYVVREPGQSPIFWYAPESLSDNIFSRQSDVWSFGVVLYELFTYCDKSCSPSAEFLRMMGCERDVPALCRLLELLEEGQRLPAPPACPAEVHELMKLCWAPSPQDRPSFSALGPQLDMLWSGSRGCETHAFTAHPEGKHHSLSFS", "conditions": "cited from earlier work"}, "human T-cells": {"test_system": "human T-cells", "assay": "allogeneic mixed leukocyte reaction, T-cell proliferation", "format": "cell-based", "conditions": "2.5 μM, after 5 days of culture, DC:T-cell ratio 1:30; control 100%; P<0.0001", "excerpt": "as §1"}, "[2]": {"test_system": "human skin graft rejection by allogeneic human PBMC", "assay": "human skin/NSG mouse xenograft model of solid organ graft rejection", "format": "in vivo", "excerpt": "The inventors then evaluated whether JAK2 inhibition could prevent solid organ graft rejection, using a human skin/NSG mouse xenograft model. A 1×1 cm split-thickness human skin graft was transplanted onto the animal dorsally, followed by intraperitoneal injection of 5×10^6 allogeneic peripheral blood mononuclear cells (PBMC) 30 days after surgery."}, "iTregs": {"test_system": "iTregs", "assay": "suppressive potency of iTregs generated with allogeneic DCs in the presence of drug", "format": "cell-based, human", "conditions": "iTregs generated with allogeneic DCs for 5 days with drug, then cultured with self T-cell responders and fresh DCs without drug", "excerpt": "as §1"}}, "data": [{"smiles": "C1=C/COCc2cc(ccc2OCCN2CCCC2)Nc2nccc(n2)-c2cccc(c2)COC/1", "note": "[pacritinib, 11-(2-Pyrrolidinl-yl-ethoxy)-14,19-dioxa-5,7,26-triazatetracyclo[19.3.1.1^2,6.1^8,12] heptacosa-1(25),2(26),3,5,8,10,12(27),16,21,23-decaene]", "values": [{"measurement": "GVHD in recipient mice", "setting": "GVHD in recipient mice", "value": "significantly reducing GVHD"}, {"measurement": "STAT3 activity by IL-6", "setting": "STAT3 activity by IL-6", "value": "eliminated STAT3 activity by IL-6"}, {"measurement": "myelosuppression", "setting": "myelofibrosis patients", "value": "does not induce myelosuppression"}, {"measurement": "risk for opportunistic infections", "setting": "myelofibrosis patients", "value": "does not induce myelosuppression or increase risk for opportunistic infections"}, {"measurement": "suppressive activity toward CSF1R", "setting": "CSF1R", "value": "has suppressive activity toward JAK3, CSF1R"}, {"measurement": "suppressive activity toward IRAK1", "setting": "IRAK1", "value": "has suppressive activity toward JAK3, CSF1R, and IRAK1"}, {"measurement": "IL-2 induced STATS phosphorylation", "setting": "[1]", "value": "permitting IL-2 induced STATS phosphorylation"}, {"measurement": "suppressive activity toward JAK3", "setting": "JAK3", "value": "has suppressive activity toward JAK3"}, {"measurement": "Mean proliferation (T-cell)", "setting": "human T-cells", "value": 23.7, "unit": "%"}, {"measurement": "Day 60 survival (graft)", "setting": "[2]; 100 mg/kg twice a day oral gavage for 15 days from PBMC injection, vehicle 0%", "value": 33.3, "unit": "%"}, {"measurement": "Median graft survival", "setting": "[2]; 100 mg/kg twice a day oral gavage for 15 days from PBMC injection, vehicle 32.5 days, P=0.0011", "value": 51, "unit": "days"}, {"measurement": "lymphocytic infiltration of skin graft (H&E, CD3 IHC)", "setting": "[2]; skin grafts at day +21, before onset of graft rejection", "value": "reduces lymphocytic infiltration of the tissue"}, {"measurement": "suppressive potency of treated iTregs versus DMSO-treated iTregs", "setting": "iTregs", "value": "similar"}]}]}
